Measured values reported in patent US6329338A, “Derivatives of cyclodepsipeptide PF1022 substance” (Meiji Seika Kaisha, Ltd., priority 1995, dated 2001).

Assays:
[1] = test system: Haemonchus contortus; assay: in vivo test on anthelmintic activity against sheep parasites (faecal egg count before and after dosing); details: sheep infested with Haemonchus contortus; oral, gelatine capsules
Source text: "in vivo" Test on Anthelmintic Activity Against Sheep Parasites
To sheep on which a nematode, Haemonchus contortus has been infested, a test compounds formulated in the form of gelatine capsules was orally administered at its dose (mg) which was accurately calculated on the basis of the body weight (kg) of the tested sheep.
The number of eggs, which were excreted along with feces from the sheep under test, was counted quantitatively both before and after the administration of the test compound. Thus, the extent of the anthelmintic effects of the test compound was evaluated. The test results are shown in Table 1 below, wherein the tested compounds are indicated by the code number of each substance tested. In Table 1, there is shown the dosage of test compound at which involvement of the excretion of eggs could not be observed at all, that is to say, the dosage of each novel cyclodespsipeptide derivative of PF1022 substance according to this invention at which the parasite could be expelled or exterminated completely.

[2] = test system: Nippostrongylus brasiliensis; assay: in vivo test on anthelmintic activity against Nippostrongylus brasiliensis in rats (adult parasites remaining in small intestine); details: male Wister rats, oral, ten days after administration, vs infected untreated control
Protocol: "in vivo" Test on Anthelmintic Activity Against Nipostrongylus brasiliensis Male rats of Wister strain, which have been artificially infected with Nippostrongylus brasiliensis, were used as test animals. The administration dose (mg) of each test compound was accurately calculated on the basis of the body weight (kg) of each rat. Each compound tested was used in the form of a solution in dimethlsulfoxide or methanol. The solution was diluted with a Ringer solution and forcedly administered orally to the test rats. Ten days after the administration, the rats were dissected and the number of adult parasites remaining in the small intestines of the rats was counted. Efficacy was calculated in comparison with the number of adult parasites in the control group of test rats (infected, but untreated) and is shown in Table 2 below.

Cyclo[MeLeu-Lac-MeLeu-((CH3)2 NCH2 CH2 O)PhLac-MeLeu-Lac-MeLeu-PhLac] [PF1022-235]
Adminstration dose (mg/kg): dosage at which excretion of eggs could not be observed at all (parasite expelled completely) [1]: 0.1 mg/kg

Cyclo[MeLeu-Lac-MeLeu-(Pr2 NCH2 CH2 O)PhLac-MeLeu-Lac-MeLeu-PhLac] [PF1022-270]
Efficacy (%) ([2]; dosage 2 mg/kg): 94.2% | Efficacy (%) ([2]; dosage 5 mg/kg): 99.7%

Cyclo[MeLeu-Lac-MeLeu-((C6 H5)2 CHOCO)Lac]2 [PF1022-045]
Adminstration dose (mg/kg): dosage at which excretion of eggs could not be observed at all (parasite expelled completely) [1]: 0.1 mg/kg

Cyclo[MeLeu-(MorCH2 CH2 O)PhLac-MeLeu-Lac-MeLeu-PhLac-MeLeu-Lac] [PF1022-239]
Adminstration dose (mg/kg): dosage at which excretion of eggs could not be observed at all (parasite expelled completely) [1]: 0.025 mg/kg

CCN(CC)CCOc1ccc(C[C@H]2OC(=O)[C@H](CC(C)C)N(C)C(=O)[C@@H](C)OC(=O)[C@H](CC(C)C)N(C)C(=O)[C@@H](Cc3ccccc3)OC(=O)[C@H](CC(C)C)N(C)C(=O)[C@@H](C)OC(=O)[C@H](CC(C)C)N(C)C2=O)cc1 [PF1022-236, Cyclo[MeLeu-Lac-MeLeu-((C2 H5)2 NCH2 CH2 O)PhLac-MeLeu-Lac-MeLeu-PhLac]]
Adminstration dose (mg/kg): dosage at which excretion of eggs could not be observed at all (parasite expelled completely) [1]: 0.01 mg/kg

Cyclo[MeLeu-Lac-MeLeu-(furfuryloxy)PhLac-MeLeu-Lac-MeLeu-PhLac] [PF1022-312]
Adminstration dose (mg/kg): dosage at which excretion of eggs could not be observed at all (parasite expelled completely) [1]: 0.05 mg/kg

Cyclo[MeLeu-Lac-MeLeu-(Bu2 NCH2 CH2 O)PhLac-MeLeu-Lac-MeLeu-PhLac] [PF1022-271]
Efficacy (%) ([2]; dosage 5 mg/kg): 100%

Cyclo[MeLeu-(Mor)PhLac-MeLeu-Lac] [reference compound]
Adminstration dose (mg/kg): dosage at which excretion of eggs could not be observed at all (parasite expelled completely) [1]: 0.05 mg/kg

Cyclo[MeLeu-Lac-MeLeu-((C2 H5)2 NHCH2 CH2 O)PhLac]2 [PF1022-263]
Adminstration dose (mg/kg): dosage at which excretion of eggs could not be observed at all (parasite expelled completely) [1]: 0.01 mg/kg

Cyclo[MeLeu-Lac-MeLeu-PhLac-MeLeu-Lac-MeLeu-(NH2 CO)PhLac] [PF1022-242]
Adminstration dose (mg/kg): dosage at which excretion of eggs could not be observed at all (parasite expelled completely) [1]: 0.01 mg/kg

Cyclo[MeLeu-(Mor)PhLac-MeLeu-Lac-MeLeu-PhLac-MeLeu-Lac] [PF1022-233]
Adminstration dose (mg/kg): dosage at which excretion of eggs could not be observed at all (parasite expelled completely) [1]: 0.05 mg/kg | Efficacy (%) ([2]; dosage 1 mg/kg): 99.1% | Efficacy (%) ([2]; dosage 2 mg/kg): 100% | Efficacy (%) ([2]; dosage 5 mg/kg): 100%

Cyclo[MeLeu-Lac-MeLeu-(imidazolyl-4-methoxy)PhLac-MeLeu-Lac-MeLeu-PhLac] [PF1022-304]
Adminstration dose (mg/kg): dosage at which excretion of eggs could not be observed at all (parasite expelled completely) [1]: 0.05 mg/kg

Cyclo[MeLeu-Lac-MeLeu-((C6 H5)2 CHOCO)Lac-MeLeu-Lac-MeLeu-PhLac] [PF1022-046]
Adminstration dose (mg/kg): dosage at which excretion of eggs could not be observed at all (parasite expelled completely) [1]: 0.1 mg/kg

CC(C)C[C@H]1C(=O)O[C@H](Cc2ccccc2)C(=O)N(C)[C@@H](CC(C)C)C(=O)O[C@H](C)C(=O)N(C)[C@@H](CC(C)C)C(=O)O[C@H](Cc2ccccc2)C(=O)N(C)[C@@H](CC(C)C)C(=O)O[C@H](C)C(=O)N1C [PF1022 substance, Cyclo(L-MeLeu-D-Lac-L-MeLeu-D-PhLac-L-MeLeu-D-Lac-L-MeLeu-D-PhLac)]
Adminstration dose (mg/kg): dosage at which excretion of eggs could not be observed at all (parasite expelled completely) [1]: 0.25 mg/kg | Efficacy (%) ([2]; dosage 10 mg/kg): 80.2%

COCCN(CCOC)CCOc1ccc(CC2OC(=O)C(CC(C)C)N(C)C(=O)C(C)OC(=O)C(CC(C)C)N(C)C(=O)C(Cc3ccccc3)OC(=O)C(CC(C)C)N(C)C(=O)C(C)OC(=O)C(CC(C)C)N(C)C2=O)cc1 (stereo not drawn) [PF1022-238, Cyclo[MeLeu-((CH3 OCH2 CH2)2 NCH2 CH2 O)PhLac-MeLeu-Lac-MeLeu-PhLac-MeLeu-Lac]]
Adminstration dose (mg/kg): dosage at which excretion of eggs could not be observed at all (parasite expelled completely) [1]: 0.01 mg/kg

Cyclo[MeLeu-(o-Mor)PhLac-MeLeu-Lac-MeLeu-(p-Mor)PhLac-MeLeu-Lac] [PF1022-280]
Efficacy (%) ([2]; dosage 1 mg/kg): 95.8% | Efficacy (%) ([2]; dosage 2 mg/kg): 99.3% | Efficacy (%) ([2]; dosage 5 mg/kg): 100%

Cyclo[MeLeu-Lac-MeLeu-(pipCH2 CH2 O)PhLac-MeLeu-Lac-MeLeu-PhLac] [PF1022-285]
Adminstration dose (mg/kg): dosage at which excretion of eggs could not be observed at all (parasite expelled completely) [1]: 0.1 mg/kg

Cyclo[MeLeu-Lac-MeLeu-(t-BuO)PhLac]2 [PF1022-222]
Adminstration dose (mg/kg): dosage at which excretion of eggs could not be observed at all (parasite expelled completely) [1]: 0.05 mg/kg
